# Data from ChEMBL document CHEMBL1145646, “New anti-inflammatory ergostane-type ecdysteroids from the sclerotium of Polyporus umbellatus” (2008).
# Test system: Mus musculus
# Assay: Inhibition of TPA-induced inflammation in mouse assessed per ear by edema assay
# Type: functional
row,Compound,ID50 [µmol/ear]
1,CC(C)C(C)/C=C/[C@@H](C)[C@H]1CC[C@H]2C3=C[C@@H](O)[C@@]4(O)C[C@@H](O)CC[C@]4(C)[C@H]3CC[C@]12C (some centres undefined),0.666
2,COc1ccc2c(c1)c(CC(=O)O)c(C)n2C(=O)c1ccc(Cl)cc1 [INDOMETHACIN],0.838
3,CC(C)C(C)[C@H](O)[C@@H]1O[C@H]2C[C@@]3(O)C4=CC(=O)[C@@H]5C[C@@H](O)[C@@H](O)C[C@]5(C)[C@H]4CC[C@]3(C)[C@H]2[C@@]1(C)O (some centres undefined) [POLYPOROID A],0.531
4,C[C@@H]1[C@H]([C@@H](O)[C@](C)(O)[C@H]2CC[C@@]3(O)C4=CC(=O)[C@@H]5C[C@@H](O)[C@@H](O)C[C@]5(C)[C@H]4CC[C@]23C)OC[C@H]1C [POLYPOROID B],0.682
5,CC(C)C(C)C[C@@H](O)[C@](C)(O)[C@H]1[C@@H](O)C[C@@]2(O)C3=CC(=O)[C@@H]4C[C@@H](O)[C@@H](O)C[C@]4(C)[C@H]3CC[C@]12C (some centres undefined) [POLYPOROID C],0.184
6,CC(C)C(C)C[C@@H](O)[C@](C)(O)[C@H]1CC[C@@]2(O)C3=CC(=O)[C@@H]4C[C@@H](O)[C@@H](O)C[C@]4(C)[C@H]3CC[C@]12C (some centres undefined) [POLYPORUSTERONE A],0.141
7,C=C(C[C@@H](O)[C@](C)(O)[C@H]1CC[C@@]2(O)C3=CC(=O)[C@@H]4C[C@@H](O)[C@@H](O)C[C@]4(C)[C@H]3CC[C@]12C)C(C)C [POLYPORUSTERONE B],0.117
8,CC(C)C(C)C1O[C@H]1[C@](C)(O)[C@H]1CC[C@@]2(O)C3=CC(=O)[C@@H]4C[C@@H](O)[C@@H](O)C[C@]4(C)[C@H]3CC[C@]12C (some centres undefined) [POLYPORUSTERONE C],0.289
9,C=C(C[C@@H](O)[C@@H](C)[C@H]1CC[C@@]2(O)C3=CC(=O)[C@@H]4C[C@@H](O)[C@@H](O)C[C@]4(C)[C@H]3CC[C@]12C)C(C)C [POLYPORUSTERONE G],0.207
